The values below come from patent publication US8519121B2, “Dextran for treating lung cancer” (Guangzhou Konzern Pharmaceutical Co., Ltd., priority 2008, dated 2013).

Common to all, as to assay type: cell-based
Assay [1] concerns Chinese Hamster Lung Epithelial cells (CHL). Nature of the assay: MTT cell proliferation, Chinese Hamster Lung Epithelial cells (CHL). The following applies: 48 hours, 0.1 μg/ml; for A570: n = 9, X ± SD. The method, then: (§1) Human lung cancer cell (A549), purchased from cell center of Xiangya School of Medicine, Central South University. Human small cell lung cancer (NCl-H446) and Chinese Hamster Lung Epithelial cells (CHL), purchased from Shanghai Institute of Biochemistry and Cell Biology, Chinese Academy of Sciences. Culture condition: RPMI 1640 medium with 10% bovine serum, 37° C., 5% CO2. Take the logarithmic phase cell for the following experiment.
(§2) Weight 3.8 g KY-1-1 into 10 ml bottle, dissolve with DMSO, and then dilute with normal saline (N.S.) to 300.0 μg/ml, 100.0 μg/ml, 30.0 μg/ml, 10.0 μg/ml, 3.0 μg/ml, 1.0 μg/ml, put into 2 ml EP tube separately, preserve in 4° C.
(§3) Injection Cisplatin (DDP), purchased from Qilu Pharmaceutical Co., Ltd., 10 mg/bottle, batch number 6030052 DB, dissolve with normal saline, dilute to 100.0 μg/ml, 10.0 μg/ml and 1.0 μg/ml.
(§4) Taxol (TAX), purchased from Beijing Sihuan Pharmaceutical Technology Stock Company, 30 mg/5 ml/bottle, batch number 060830, dissolve with normal saline, dilute to 100.0 μg/ml, 10.0 μg/ml and 1.0 μg/ml. • (2) Method
(§5) Preparing suspension of human lung cancer cell (A549), human small cell lung cancer (NCl-H446) and Chinese Hamster Lung Epithelial cells (CHL), adjust to 0.5×10^4 cells/ml, seed in 96-microplate, 180 μl/hole. After cell adhesion (about 12 hours), add sample and control solution 20 μl separately into each hole, adjust the final concentration of KY-1-1 to 0.1 μg/ml, 0.3 μg/ml, 1.0 μg/ml, 3.0 μg/ml, 10.0 μg/ml and 30.0 μg/ml, and the final concentration of DDP and TAX are both 0.1 μg/ml, incubate for 48 hours, and then add MTT (5 mg/ml, MTT:PBS) 20 μl to each hole, incubate for 6 hours, remove the liquid in each hole, and then add DMSO 100 μl to each hole in order to dissolve the purple blue precipitate, then detect the absorbency (A) in 570 nm by an enzyme-labeled instrument EXL-800. Calculate the inhibition ratio (IR) with the following equation: IR(%)=(1−mean of A of dextran group/mean of A of control group)×100%.
(§6) The selective index (SI) of cytotoxicity of the dextran is calculated with the following equation: SI═IC50(CHL cells)/IC50(A549 cells or NCl-H446 cells),
(§7) wherein IC50 is calculated by Calcus Zn procedure.
(§8) Repeat the above experiment twice.
(§9) Experiment data is expressed by X±SD, and use the software SPSS 15.0 Evaluation for windows to carry out One Way ANOVA analysis, and the analysis of variance uses the LSD method and SNK method. The result is compared by Student's test, there is statistic marked difference under the condition of […].

Assay [2] has as its system human small cell lung cancer (NCl-H446). As to the kind of experiment: MTT cell proliferation, human small cell lung cancer (NCl-H446). The following applies: NCI-H446 cells, 48 hours, 0.1 μg/ml; for A570: n = 9, X ± SD. The method, then: as §1, §2, §3, §4, §5, §6, §7, §8, §9
Assay [3] has as its system human lung cancer cell (A549). Nature of the assay: MTT cell proliferation, human lung cancer (A549). The following applies: A549 cells, 48 hours, 0.1 μg/ml; for A570: n = 9, X ± SD. The method, then: as §1, §2, §3, §4, §5, §6, §7, §8, §9
In assay [4] the test system is human small cell lung cancer (NCl-H446). Nature of the assay: Anchorage-dependent cell growth capacity, plate cloning method, NCl-H446. The note with it: NCI-H446, plate cloning method, 7 days, 0.1 μg/ml; for Number of Colonies: n = 9, X ± SD. The method, then: as §1
(§10) Preparing suspension of human lung cancer cell (A549) and human small cell lung cancer (NCl-H446), adjust to 0.3×10^3 cells/ml. In each hole, cell suspension […], and sample 0.2 ml, and control solution 0.2 ml. The final concentration of KY-1-1 is 0.1 μg/ml, 0.3 μg/ml, 1.0 μg/ml, 3.0 μg/ml, 10.0 μg/ml and 30.0 μg/ml, and the final concentration of DDP and TAX are both 0.1 μg/ml, add the same volume medium into the control group. Three holes in each group, seed in 24-microplate, incubate in CO2 for 7 days. Add 95% methanol 0.5 ml into each hole, fixed for 15 minutes, and Giemsa staining for 10-30 minutes. The number of cells in a colony is more than 50, or the diameter of the colony is more than 75 μm. Count the number of colonies in each hole, calculate the mean and record it. Calculate the colony inhibition ratio (CIR) with the following equation: CIR(%)=(1−mean of number of colony of dextran group/mean of number of colony of control group)×100%.
(§11) The plate efficiency (PE) is calculated with the following equation: PE=mean of number of colony/number of seeded cells×100%,
as §7, §8, §9

Assay [5] concerns human lung cancer cell (A549). As to the kind of experiment: Anchorage-dependent cell growth capacity, plate cloning method, A549. The note with it: 7 days, 0.1 μg/ml; for Number of Colonies: n = 9, X ± SD. The method, then: as §1, §10, §11, §7, §8, §9
Assay [6] deals with human small cell lung cancer (NCl-H446). Nature of the assay: Anchorage-independent cell growth (cell colony forming capacity in agar), NCl-H446. The following applies: NCI-H446, colony forming in agar, 7 days, 0.1 μg/ml; for Number of Colonies: n = 9, X ± SD. The method, then: as §1
(§12) Take 24-microplate, add 0.6% agar medium 0.5 ml in each hole. Preparing suspension of human lung cancer cell (A549) and human small cell lung cancer (NCl-H446), adjust to 1.6×10^3 cells/ml. In each hole, cell suspension 1.6 ml, and sample 0.2 ml, and control solution 0.2 ml. The final concentration of KY-1-1 is 0.1 μg/ml, 0.3 μg/ml, 1.0 μg/ml, 3.0 μg/ml, 10.0 μg/ml and 30.0 μg/ml, and the final concentration of DDP and TAX are both 0.1 μg/ml. DDP 0.2 ml, and TAX 0.2 ml. Add the same volume medium into the control group. Three holes in each group, after mixing with 0.3% agar 0.2 ml, seed in 24-microplate 0.5 ml/hole, incubate in CO2 for 7 days. The number of cells in a colony is more than 50, or the diameter of the colony is more than 75 μm. Count the number of colonies in each hole, calculate the mean and record it. Calculate the colony inhibition ratio (CIR) with the following equation: CIR(%)=(1−mean of number of colony of dextran group/mean of number of colony of control group)×100%.
as §11, §7, §8, §9

The test system of assay [7] is human lung cancer cell (A549). As to the kind of experiment: Anchorage-independent cell growth (cell colony forming capacity in agar), A549. The following applies: 7 days, 0.1 μg/ml; for Number of Colonies: n = 9, X ± SD. The method, then: as §1, §12, §11, §7, §8, §9

Regarding `N.N.[Cl][Pt][Cl]` [DDP, Cisplatin], the “IR (%)” value is listed as 76.35% in assay [1]; 77.89% in assay [2]; 76.35% in assay [3]; 78.44% in assay [4]; 75.82% in assay [5]; 75.98% in assay [6]. Moreover, the “IR (%)” value in assay [7] was 77.05%. The A570 was 1.41 ± 0.30 in assay [1], 0.36 ± 0.03 in assay [2] and 0.37 ± 0.03 in assay [3]. The “Number of Colonies” value in assay [4] came out at 23.33 ± 4.18; in assay [5], 23.89 ± 4.43; in assay [6], 17.00 ± 2.74; in assay [7] it was 14.00 ± 2.00.

`CC(=O)O[C@H]1C(=O)[C@@]2(C)[C@H]([C@H](OC(=O)c3ccccc3)[C@]3(O)C[C@H](OC(=O)[C@H](O)[C@@H](NC(=O)c4ccccc4)c4ccccc4)C(C)=C1C3(C)C)[C@]1(OC(C)=O)CO[C@@H]1C[C@@H]2O` [TAX, Taxol]: the “IR (%)” value in assay [1] turned out to be 83.13%; in assay [2], 83.54%; in assay [3], 83.13%; in assay [4], 82.34%; in assay [5] it was 82.00%; in assay [6] it was 84.46%. The “IR (%)” value in assay [7] is given as 83.61%. In addition, the A570 in assay [1] is on record as 1.25 ± 0.14; in assay [2] it was 0.27 ± 0.01; in assay [3], 0.27 ± 0.03. Also, the “Number of Colonies” value in assay [4] was found to be 19.11 ± 2.57; in assay [5], 17.78 ± 2.05; in assay [6] it was 11.00 ± 1.58; in assay [7], 10.00 ± 1.87.
